Reference: ChEMBL document CHEMBL3227937, “2',3'-Bis(2-chloroethyl)aminophosphoryl-3'-amino-3'-deoxyadenosine: a cyclic nucleotide with antitumor activity” (1979)
Values after ≈ are worked out from the molar mass of the structure shown.

Assays:
[1] = Anticancer activity against mouse LE1210 cells allografted in mouse at 0.625 mg/kg, ip relative to control; assay type: functional; details: route intraperitoneal
[2] = system: KB; assay: Cytotoxicity against human KB cells; assay type: functional

SMILES | T/C [1] | EC50 ([2]; Homo sapiens, KB, read-out: ED50 (the source's name)) | ED50 [2]
CN(C)c1ncnc2c1ncn2[C@@H]1O[C@H](CO)[C@H]2NP(=O)(N(CCCl)CCCl)O[C@H]21 (mixture of isomers) | 101% | – | –
Nc1ncnc2c1ncn2[C@@H]1O[C@H](CO)[C@H]2NP(=O)(N(CCCl)CCCl)O[C@H]21 (single isomer, unassigned; isomer 1) | 101% | 1.1 µg/mL (≈ 2.43 µM) | –
Nc1ncnc2c1ncn2[C@@H]1O[C@H](CO)[C@H]2NP(=O)(N(CCCl)CCCl)O[C@H]21 (single isomer, unassigned; isomer 2) | – | – | 0.66 µg/mL (≈ 1.46 µM)
